Experimental data published in PMC4664064 (Chemical research in toxicology, 2015).

Assays:
P450 1A1 = target: T1, P450 1A1 (Homo sapiens, UniProt P04798); experiment: EROD assay with recombinant enzyme, compound at […]; type: biochemical
T1 sequence (P04798 1-512): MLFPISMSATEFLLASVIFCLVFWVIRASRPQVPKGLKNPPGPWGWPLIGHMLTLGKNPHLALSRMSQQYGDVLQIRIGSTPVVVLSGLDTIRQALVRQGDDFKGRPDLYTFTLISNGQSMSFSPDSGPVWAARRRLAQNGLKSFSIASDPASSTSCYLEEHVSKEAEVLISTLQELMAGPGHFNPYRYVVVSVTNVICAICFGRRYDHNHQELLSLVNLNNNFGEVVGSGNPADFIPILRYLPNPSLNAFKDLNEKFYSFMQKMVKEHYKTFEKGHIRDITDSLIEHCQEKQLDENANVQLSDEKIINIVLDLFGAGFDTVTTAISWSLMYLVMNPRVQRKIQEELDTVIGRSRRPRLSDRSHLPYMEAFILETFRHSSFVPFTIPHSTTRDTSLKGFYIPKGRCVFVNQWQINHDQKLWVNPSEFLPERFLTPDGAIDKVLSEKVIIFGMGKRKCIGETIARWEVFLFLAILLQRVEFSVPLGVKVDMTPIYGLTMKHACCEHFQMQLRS
T1 sequence (P16435 2-677 partner): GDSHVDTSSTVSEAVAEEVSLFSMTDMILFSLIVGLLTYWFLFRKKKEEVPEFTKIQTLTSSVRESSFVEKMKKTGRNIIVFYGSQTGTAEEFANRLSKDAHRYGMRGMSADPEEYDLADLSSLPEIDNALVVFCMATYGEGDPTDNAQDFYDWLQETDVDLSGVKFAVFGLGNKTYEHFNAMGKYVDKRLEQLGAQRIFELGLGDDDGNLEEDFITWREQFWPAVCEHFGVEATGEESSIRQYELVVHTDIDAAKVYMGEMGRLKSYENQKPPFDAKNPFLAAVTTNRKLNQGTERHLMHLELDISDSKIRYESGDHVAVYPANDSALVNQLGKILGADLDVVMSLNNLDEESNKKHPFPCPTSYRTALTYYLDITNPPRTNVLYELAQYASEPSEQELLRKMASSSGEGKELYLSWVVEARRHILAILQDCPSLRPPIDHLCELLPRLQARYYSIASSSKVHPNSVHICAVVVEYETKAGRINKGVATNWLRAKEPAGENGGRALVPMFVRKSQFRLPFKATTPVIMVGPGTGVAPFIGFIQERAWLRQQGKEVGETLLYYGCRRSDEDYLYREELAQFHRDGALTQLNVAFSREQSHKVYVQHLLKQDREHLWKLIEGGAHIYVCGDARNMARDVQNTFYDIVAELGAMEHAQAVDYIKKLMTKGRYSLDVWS

P450 1B1 = target: T2, P450 1B1 (Homo sapiens, UniProt Q16678); experiment: EROD assay with recombinant enzyme, compound at […]; type: biochemical
T2 sequence (Q16678 1-543): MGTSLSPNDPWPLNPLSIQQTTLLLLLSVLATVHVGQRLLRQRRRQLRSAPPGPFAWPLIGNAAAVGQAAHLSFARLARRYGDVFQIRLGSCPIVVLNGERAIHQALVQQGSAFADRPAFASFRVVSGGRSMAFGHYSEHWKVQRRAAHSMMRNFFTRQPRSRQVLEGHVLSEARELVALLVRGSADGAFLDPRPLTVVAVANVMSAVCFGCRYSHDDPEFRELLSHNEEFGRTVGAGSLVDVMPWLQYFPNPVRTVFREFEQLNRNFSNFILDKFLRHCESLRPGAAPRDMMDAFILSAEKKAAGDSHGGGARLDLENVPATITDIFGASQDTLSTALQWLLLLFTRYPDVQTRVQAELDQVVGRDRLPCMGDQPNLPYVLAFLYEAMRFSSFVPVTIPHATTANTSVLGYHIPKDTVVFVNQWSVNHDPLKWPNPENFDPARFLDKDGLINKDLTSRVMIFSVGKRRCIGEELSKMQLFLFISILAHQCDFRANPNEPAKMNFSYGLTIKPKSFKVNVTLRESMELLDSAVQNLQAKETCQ
T2 sequence (P16435 2-677 partner): T1 sequence (P16435 2-677 partner)

Structure (SMILES)	EROD assay with recombinant enzyme, compound at 1 and 10 uM (P450 1A1)	EROD assay with recombinant enzyme, compound at 1 and 10 uM (P450 1B1)
O=C(/C=C/c1ccc(O)cc1)c1ccc(O)cc1O [LigC, isoliquiritigenin]	LicA and LigC led to a significant inhibition of recombinant P450 1A1/1B1 enzyme activity (Figure 7B, C)	LicA and LigC led to a significant inhibition of recombinant P450 1A1/1B1 enzyme activity (Figure 7B, C)
C=CC(C)(C)c1cc(/C=C/C(=O)c2ccc(O)cc2)c(OC)cc1O [LicA, licochalcone A]	LicA and LigC led to a significant inhibition of recombinant P450 1A1/1B1 enzyme activity (Figure 7B, C)	LicA and LigC led to a significant inhibition of recombinant P450 1A1/1B1 enzyme activity (Figure 7B, C)
